Test results published in DBAASP.
≈ marks a conversion by molar mass, not a printed value. Each block holds one compound with its values, some of them ahead of it.

Legend:
Assay in all cases: ≥ marks a high value that may be exact or a test limit, other limits are often not marked, values filed in µg/mL are converted to µM
[1] = test system: Staphylococcus aureus M838-17
[2] = test system: Klebsiella pneumoniae E406-17
[3] = test system: Pseudomonas aeruginosa E411-17
[4] = test system: Penicillium expansum
[5] = test system: Escherichia coli SBS 363
[6] = test system: Micrococcus luteus A270
[7] = test system: Aspergillus niger
[8] = test system: Cryptococcus neoformans
[9] = test system: Pseudomonas aeruginosa ATCC 27853
[10] = test system: Staphylococcus aureus ATCC BAA-2312
[11] = test system: Klebsiella pneumoniae ATCC 49472
[12] = test system: Salmonella enterica subsp. enterica serovar Typhimurium ATCC 14028
[13] = test system: Enterococcus faecalis ATCC 51299
[14] = test system: Klebsiella pneumoniae ATCC BAA-2814
[15] = test system: Escherichia coli ATCC 35218
[16] = test system: Staphylococcus aureus ATCC 12600
[17] = test system: Enterococcus faecium ATCC 19434
[18] = test system: Candida albicans CA1
[19] = test system: Candida krusei ATCC 40147
[20] = test system: Candida parapsilosis ATCC 90018
[21] = test system: Candida albicans ATCC 90029
[22] = test system: Candida tropicalis ATCC 750
[23] = test system: Lacticaseibacillus rhamnosus 1.0386
[24] = test system: Staphylococcus aureus ATCC 29213
[25] = test system: Escherichia coli K88
[26] = test system: Lactiplantibacillus plantarum 8014
[27] = test system: Escherichia coli ATCC 25922
[28] = test system: Lacticaseibacillus rhamnosus 1.0385
[29] = test system: Staphylococcus epidermidis ATCC 12228
[30] = test system: Lacticaseibacillus rhamnosus 1.9205
[31] = test system: Escherichia coli 078
[32] = test system: Escherichia coli UB1005
[33] = test system: Escherichia coli 987P
[34] = test system: Escherichia coli K99
[35] = test system: Staphylococcus aureus ATCC 25923
[36] = test system: Salmonella enterica subsp. enterica serovar Typhimurium C77-31
[37] = test system: Lacticaseibacillus rhamnosus 1.0911
[38] = test system: Lacticaseibacillus rhamnosus 7469
[39] = test system: Streptococcus agalactiae ATCC 13813
[40] = test system: Pseudomonas aeruginosa 919
[41] = test system: Pseudomonas aeruginosa 253
[42] = test system: Pseudomonas aeruginosa 910
[43] = test system: Pseudomonas aeruginosa PAO1
[44] = test system: Candida albicans ATCC 1023
[45] = test system: Candida albicans

MIC [1]: 3.1 µM (≈ 4.17 µg/mL)
MIC [2]: 6.25 µM (≈ 8.4 µg/mL)
MIC [3]: 6.25 µM (≈ 8.4 µg/mL)
Structure (SMILES): CC(C)C[C@H](NC(=O)[C@H](Cc1c[nH]c2ccccc12)NC(=O)[C@H](Cc1c[nH]c2ccccc12)NC(=O)[C@H](Cc1c[nH]c2ccccc12)NC(=O)[C@H](Cc1c[nH]c2ccccc12)NC(=O)[C@H](CCCN=C(N)N)NC(=O)[C@H](CCCN=C(N)N)NC(=O)[C@@H](N)CCCN=C(N)N)C(N)=O [RRRWWWWL]

MIC [4]: ≥ 128 µM
MIC [5]: ≥ 100 µM
MIC [6]: ≥ 128 µM
MIC [7]: ≥ 128 µM
MIC [8]: ≥ 128 µM
MIC [9]: 64 µM (≈ 58.9 µg/mL)
Structure (SMILES): CSCC[C@H](NC(=O)CNC(=O)[C@H](CC(C)C)NC(=O)[C@H](Cc1ccccc1)NC(=O)CNC(=O)[C@H](CO)NC(=O)[C@@H]1CCCN1C(=O)CN)C(=O)N[C@@H](CCCN=C(N)N)C(=O)O [GPSGFLGMR]

MIC [10]: ≥ 250 µM
MIC [11]: ≥ 125 µM
MIC [12]: 250 µM (≈ 663 µg/mL)
MIC [13]: ≥ 250 µM
MIC [14]: ≥ 125 µM
MIC [15]: ≥ 62.5 µM
MIC [9]: > 125 µM
MIC [16]: ≥ 250 µM
MIC [17]: ≥ 250 µM
Structure (SMILES): CC[C@H](C)[C@H](NC(=O)[C@H](CC(=O)O)NC(=O)[C@@H](NC(=O)[C@@H](NC(=O)[C@H](C)NC(=O)CN)C(C)C)C(C)C)C(=O)N[C@@H](CC(C)C)C(=O)N[C@@H](CCCCN)C(=O)NCC(=O)N[C@@H](C)C(=O)NCC(=O)N[C@@H](CCCCN)C(=O)N[C@@H](CC(N)=O)C(=O)N[C@@H](CC(C)C)C(=O)N[C@@H](CC(C)C)C(=O)N[C@@H](CO)C(=O)N[C@@H](CC(C)C)C(=O)N[C@@H](C)C(=O)N[C@@H](CC(C)C)C(=O)N[C@@H](CC(N)=O)C(=O)N[C@@H](CCCCN)C(=O)N[C@@H](CC(C)C)C(=O)N[C@@H](CO)C(=O)N[C@@H](CCC(=O)O)C(=O)N[C@@H](CCCCN)C(=O)N[C@H](C(N)=O)C(C)C [GAVVDILKGAGKNLLSLALNKLSEKV]

MIC [18]: 10 µM (≈ 25.6 µg/mL)
MIC [19]: 5 µM (≈ 12.8 µg/mL)
MIC [20]: 10 µM (≈ 25.6 µg/mL)
MIC [21]: 10 µM (≈ 25.6 µg/mL)
MIC [22]: 10 µM (≈ 25.6 µg/mL)
Structure (SMILES): CC[C@H](C)[C@H](NC(=O)[C@H](C)NC(=O)[C@H](CCCCN)NC(=O)[C@H](CC(C)C)NC(=O)[C@H](C)NC(=O)[C@H](Cc1c[nH]c2ccccc12)NC(=O)[C@H](CCCCN)NC(=O)[C@H](C)NC(=O)[C@H](CC(C)C)NC(=O)[C@@H](NC(=O)CNC(=O)[C@H](Cc1c[nH]c2ccccc12)NC(=O)[C@@H](N)Cc1ccccc1)[C@@H](C)O)C(=O)N1CCC[C@H]1C(=O)N[C@@H](C)C(=O)N[C@@H](C)C(=O)N[C@@H](CCSC)C(=O)NCC(=O)N[C@@H](CCSC)C(=O)N[C@@H](CCCCN)C(=O)N[C@@H](CCC(N)=O)C(=O)N[C@@H](CC(N)=O)C(=O)N[C@@H](CCCCN)C(=O)O [FWGTLAKWALKAIPAAMGMKQNK]

MIC [23]: ≥ 128 µM
MIC [24]: > 128 µM
MIC [25]: ≥ 64 µM
MIC [27]: 64 µM (≈ 77.5 µg/mL)
MIC [28]: ≥ 128 µM
MIC [29]: > 128 µM
MIC [30]: ≥ 128 µM
MIC [31]: ≥ 128 µM
MIC [32]: ≥ 128 µM
MIC [33]: ≥ 128 µM
MIC [34]: ≥ 64 µM
MIC [35]: > 128 µM
MIC [9]: > 128 µM
MIC [36]: ≥ 128 µM
MIC [37]: ≥ 128 µM
MIC [38]: ≥ 128 µM
MIC [39]: ≥ 128 µM
Structure (SMILES): CC(C)C[C@H](NC(=O)[C@H](CCCN=C(N)N)NC(=O)[C@@H](NC(=O)[C@H](CCCN=C(N)N)NC(=O)[C@@H]1CCCN1C(=O)[C@H](CCCN=C(N)N)NC(=O)[C@H](CCCCN)NC(=O)[C@@H](N)CCC(N)=O)C(C)C)C(=O)N[C@@H](CO)C(=O)N[C@@H](C)C(=O)O [QKRPRVRLSA]
MIC [26]: ≥ 128 µM

MIC [40]: ≥ 32 µM
MIC [41]: 8 µM (≈ 15.7 µg/mL)
MIC [42]: 4 µM (≈ 7.84 µg/mL)
MIC [43]: 2 µM (≈ 3.92 µg/mL)
Structure (SMILES): CC[C@H](C)[C@H](N)C(=O)N[C@@H](CC(C)C)C(=O)N[C@@H](CCCCN)C(=O)N[C@@H](Cc1c[nH]c2ccccc12)C(=O)N[C@@H](CCCCN)C(=O)N[C@@H](CCCN=C(N)N)C(=O)N[C@@H](CCCCN)C(=O)N[C@@H](Cc1c[nH]c2ccccc12)C(=O)N[C@@H](Cc1c[nH]c2ccccc12)C(=O)N[C@@H](CCCCN)C(=O)N[C@@H](Cc1c[nH]c2ccccc12)C(=O)N[C@@H](Cc1ccccc1)C(=O)N[C@@H](CCCN=C(N)N)C(N)=O [ILKWKRKWWKWFR]

MIC [44]: ≥ 195 µM
MIC [27]: 24.4 µM (≈ 32 µg/mL)
MIC [35]: 6.1 µM (≈ 7.99 µg/mL)
MIC [45]: 195 µM (≈ 256 µg/mL)
MIC [9]: 48.8 µM (≈ 64 µg/mL)
Structure (SMILES): CC[C@H](C)[C@H](NC(=O)CN)C(=O)N[C@@H](CC(C)C)C(=O)N[C@@H](CC(=O)O)C(=O)N[C@@H](C)C(=O)N[C@H](C(=O)N[C@@H](CCCCN)C(=O)N[C@@H](C)C(=O)N[C@H](C(=O)N[C@@H](C)C(=O)N[C@@H](CCCCN)C(=O)N[C@@H](C)C(=O)N[C@@H](C)C(=O)NCC(N)=O)[C@@H](C)CC)[C@@H](C)CC [GILDAIKAIAKAAG]
